This passage reports hTS inhibition and IC50 results from patent US20240043467A1, “5'-SUBSTITUTED NUCLEOSIDE MONOPHOSPHATES, PRODRUGS THEREOF, AND USES RELATED THERETO” (EMORY UNIVERSITY, priority 2020, published 2024).

What is called IC50 is the concentration that inhibits the measured activity by half.

In this experiment the target is T1, Recombinant human thymidylate synthase (hTS) (Homo sapiens, UniProt P04818).
T1 construct: purchased Abcam
Put plainly: Human thymidylate synthase inhibition assay. The class given is biochemical. Conditions: for hTS inhibition: highest concentration tested 20 μM. Here is the method: Recombinant human thymidylate synthase (hTS) was purchased from Abcam. […] 5,10-Methylenetetrahydrofolate (calcium salt) was purchased from Boc Sciences and used without further purification.
The hTS inhibition assays were performed on a BioTek Synergy Neo2 plate reader equipped with a Xenon flash lamp and a photodiode array detector. The hTS reaction was conducted at room temperature in a buffer solution (pH 7.5) containing 50 mM Tris-HCl, 1 mM EDTA, 25 mM MgCl2, and 5 mM HCHO. […] 5,10-Methylenetetrahydrofolate was added last to initiate the reaction. Formation of the co-product, dihydrofolate, was monitored at 340 nm. The absorbance at 340 nm was plotted against the reaction time to calculate the reaction rate (i.e., the slope of the linear fitting). The reaction rates at different inhibitor concentrations were normalized to the reaction rate determined in the absence of inhibitor (100% enzymatic activity). The resulting % enzymatic activity values were plotted against the corresponding log value of the inhibitor concentration to construct concentration-response curves. IC50 values were then calculated using non-linear regression (four-parameter logistic equation, see Equation 1 below) in the GraphPad Prism v.9 software.
Y=Ymin+(Ymax−Ymin)/[1+10^((logIC50−X)×Hill Slope)] Equation 1

T1 sequence (P04818 whole entry): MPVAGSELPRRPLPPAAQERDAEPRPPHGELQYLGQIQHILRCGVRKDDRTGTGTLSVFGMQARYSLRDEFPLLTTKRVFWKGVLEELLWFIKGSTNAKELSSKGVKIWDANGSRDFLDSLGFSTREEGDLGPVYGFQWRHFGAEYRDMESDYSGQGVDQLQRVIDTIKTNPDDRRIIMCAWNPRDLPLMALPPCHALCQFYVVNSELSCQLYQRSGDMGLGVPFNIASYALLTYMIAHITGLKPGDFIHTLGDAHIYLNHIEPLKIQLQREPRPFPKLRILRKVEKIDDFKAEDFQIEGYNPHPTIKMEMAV

`C[C@H](OP(=O)(O)O)[C@H]1O[C@@H](n2cc(F)c(=O)[nH]c2=O)C[C@@H]1O` [MD-7-112, lithium (S)-1-((2S,3S,5R)-5-(5-fluoro-2,4-dioxo-3,4-dihydropyrimidin-1(2H)-yl)-3-hydroxytetrahydrofuran-2-yl)ethyl phosphate]: the hTS inhibition result is “inactive”.

For the molecule `C[C@@H](OP(=O)(O)O)[C@H]1O[C@@H](n2cc(F)c(=O)[nH]c2=O)C[C@@H]1O` [MD-7-105, lithium (R)-1-((2S,3S,5R)-5-(5-fluoro-2,4-dioxo-3,4-dihydropyrimidin-1(2H)-yl)-3-hydroxytetrahydrofuran-2-yl)ethyl phosphate], for the setting “50 μM dUMP, 0.84 μM hTS, five repeats, pH 7.5, room temperature, read-out: IC50 against hTS”, the IC50 was determined as 1210 nM.

Take `CC(C)(OP(=O)([O-])[O-])[C@H]1O[C@@H](n2cc(F)c(=O)[nH]c2=O)C[C@@H]1O.[Li+].[Li+]` [MD-7-115, lithium 2-((2S,3S,5R)-5-(5-fluoro-2,4-dioxo-3,4-dihydropyrimidin-1(2H)-yl)-3-hydroxytetrahydrofuran-2-yl)propan-2-yl phosphate]: the hTS inhibition entry was “inactive”.
